Values of other authors, collected in patent publication US9119775B2, “Use of pilocarpine for hypoptyalism treatment” (priority 2004, dated 2015).

Tests used:
salivary glands [1] = test system: salivary glands
salivary glands [2] = settings: according to the known pharmacokinetic studies

## CC[C@@H]1C(=O)OC[C@@H]1Cc1cncn1C [pilocarpine]
Salivary glands [1]; oral method, after intake
  delay of first action of the pilocarpine after intake: 0.45 to 1 h
Salivary glands [1]; oral tablets, 15 mg per day up to 30 mg per day, conducted over several weeks
  undesirable secondary effects: nausea, excessive sweating, sensations of dizziness, hot flashes or asthenias
Salivary glands [2]
  duration of the effects of stimulation: 4 to 8 h
